Experimental data from patent US9592223B2, “Small molecule inhibitors of MALT1” (Cornell University, priority 2012, dated 2017).

Tests used:
[1] = target: T1, LZ-MALT1 (MALT1 (340-789) fused with a leucine zipper dimerization motif) (Homo sapiens, UniProt Q9UDY8); assay: LZ-MALT1 fluorescence assay (Ac-LRSR-AMC cleavage), screening and concentration response; assay type: biochemical; details: concentration response assay, 0.122 μM to 62.5 μM; read-out: IC50 (biochemical activity, in vitro)
T1 construct: His tag (N); made in house; host or cells: E. coli
T1 sequence (Q9UDY8 with tags, fused parts or gaps limits assumed): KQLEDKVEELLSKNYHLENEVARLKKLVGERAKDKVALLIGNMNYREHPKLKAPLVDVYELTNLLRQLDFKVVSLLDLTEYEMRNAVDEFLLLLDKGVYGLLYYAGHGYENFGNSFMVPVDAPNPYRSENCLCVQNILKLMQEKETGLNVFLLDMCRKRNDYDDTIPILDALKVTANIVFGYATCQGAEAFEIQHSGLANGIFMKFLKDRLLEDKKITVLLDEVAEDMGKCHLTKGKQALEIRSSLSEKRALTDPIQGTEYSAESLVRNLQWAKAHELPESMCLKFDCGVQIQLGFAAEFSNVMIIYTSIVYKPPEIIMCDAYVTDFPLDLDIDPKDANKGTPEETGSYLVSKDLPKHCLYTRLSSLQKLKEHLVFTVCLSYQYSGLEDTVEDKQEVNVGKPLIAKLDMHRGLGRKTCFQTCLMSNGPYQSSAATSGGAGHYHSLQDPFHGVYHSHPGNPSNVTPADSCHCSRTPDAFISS
Excerpt: We reasoned that MALT1 small-molecule inhibitors might be useful chemical tools for studying MALT1 biology and treating MALT1 addicted tumors. However, full-length MALT1 and its paracaspase domain (amino acids 340-789) are naturally present in physiological solutions as a monomer, which has very low proteolytic activity. Caspases generally must homodimerize for maximal catalytic activity (Pop et al., 2006; Walker et al., 1994; Yin et al., 2006) and accordingly the recently reported structures of the paracaspase domain of MALT1 in complex with a peptide inhibitor are dimeric (Wiesmann et al., 2012; Yu et al., 2011). […]
Ac-LRSR-AMC was used as substrate and reactions were measured with excitation/emission wavelengths of 360/465 nm. […] The final percent inhibition was calculated with the formula: {[fluorescencetest compound(T2-T1)−fluorescenceneg ctrl(T2−T1)]/[fluorescencepos ctrl(T2−T1)−fluorescenceneg ctrl(T2−T1)]}×100. […]
The screening consisted of a 20 μl reaction in 384-well black plates (Greiner Bio One, Wemmel, Belgium, catalogue #784076) with 100 nM LZ-MALT1, 200 μM Ac-LRSR-AMC, and 12.5 μM test compound in buffer A (20 mM HEPES pH 7.5, 10 mM KCl, 1.5 mM MgCl2, 1 mM EDTA, 1 mM DTT, 0.01% Triton X-100). The reactions were measured with excitation/emission wavelengths of 360/465 nm using Envision Multilabel Reader (Perkin-Elmer, Waltham, Mass.). […]

[2] = target: T2, MALT1 paracaspase domain (329-728) (Homo sapiens, UniProt Q9UDY8); assay: LC-MS covalent modification; assay type: binding
T2 construct: MALT1 paracaspase domain (329-728) presented a major peak at 55,988.4 Da
T2 sequence (Q9UDY8 329-728): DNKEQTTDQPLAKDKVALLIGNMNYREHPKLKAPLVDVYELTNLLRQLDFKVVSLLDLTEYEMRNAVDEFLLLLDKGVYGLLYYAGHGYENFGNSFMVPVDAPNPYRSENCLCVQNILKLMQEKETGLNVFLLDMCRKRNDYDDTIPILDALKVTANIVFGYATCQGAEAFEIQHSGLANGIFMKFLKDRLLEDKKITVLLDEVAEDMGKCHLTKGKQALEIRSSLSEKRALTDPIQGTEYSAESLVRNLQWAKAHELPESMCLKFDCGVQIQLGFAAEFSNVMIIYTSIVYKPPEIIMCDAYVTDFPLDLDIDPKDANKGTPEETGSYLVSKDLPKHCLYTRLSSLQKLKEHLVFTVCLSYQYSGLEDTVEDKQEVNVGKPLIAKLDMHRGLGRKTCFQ
Experimental: (§1) The final results were ranked on the predicted binding free energy and the cluster size for each docking conformation.
(§2) HPLC/ESI-MS experiments were carried out on 5 μl sample at 1 mg/ml protein concentration. Separation of proteins was performed on a HP 1100 system (Hewlett Packard, Palo Alto, Calif., USA) employing a 1 mm×150 mm LC Packings column packed with POROS R1/H (Perseptive Biosystems, Foster City, Calif., USA). The column was kept at 80° C. Samples were injected onto the column using a CTC PAL autosampler (CTC, Zwingen Switzerland) fitted with a Valco model C6UW HPLC valve (Valco, Houston, Tex., USA) and a 10 μl injection loop. HPLC was controlled by MassLynx software (Micromass, Manchester, UK). UV detection was performed at 214 nm. Eluent A was water containing 0.05% TFA. Eluent B was a 1:9 mixture of water:acetonitrile containing 0.045% TFA. A gradient from 20% B to 90% B was run in 20 minutes. The flow rate was typically 60 μl/min. The total flow from the LC system was introduced into the UV detection cell prior to introduction in the ESI source. The HPLC system was controlled and the signal from the UV detector was processed using MassLynx software. […] Data were recorded and processed using MassLynx software. […]

[3] = target: T3, MALT1 active site mutant C464A (Homo sapiens, UniProt Q9UDY8, C464A); assay: LC-MS covalent modification, active site mutant; assay type: binding
T3 construct: MALT1 paracaspase domain (329-728) presented a major peak at 55,988.4 Da
T3 sequence (Q9UDY8 329-728 C464A): as the sequence (Q9UDY8 329-728) above, with C136A counted along it
Experimental: as §1, §2

COCCOc1nc(-c2ccc(Cl)c(Cl)c2)n(-c2ccc(NC(=O)CCl)cc2)n1 [MI-2]
IC50 [1]: ~5 µM | covalent binding to MALT1 ([2]; LC-MS): bind covalently | increase of the major peak of MALT1 upon incubation ([2]; LC-MS, 55,988.4 Da shifted to 56,407.5 Da): 419.1 Da | covalent binding to MALT1 C464A [3]: markedly reduced covalent binding
